Experimental data reported in US20250339569A1, “CARBONIC ANHYDRASE IX LIGANDS” (priority 2021, published 2025).
Starred links: 1 amine or outer side, 2 acyl side, 3 side chain; linkers in the order of their positions; H or OH if unused. Positions of bridges follow the written chain, without caps; N, C: chain ends. Non-standard residues stand in square brackets, D forms with d. Residues, ends and D or L forms follow the SMILES beside them. *: point of attachment. X25 = CC(=O)N[C@H](CCC(=O)O)C(=O)Nc1cccc(C[C@@H](N[*:1])C(=O)[*:2])c1; X35 = CC(=O)N[C@@H](CCC(=O)Nc1cccc(C[C@H](N[*:1])C(=O)[*:2])c1)C(=O)O; X32 = CC(=O)N[C@H](CC(=O)O)C(=O)Nc1cccc(C[C@@H](N[*:1])C(=O)[*:2])c1; X33 = CC(=O)N[C@@H](CC(=O)Nc1cccc(C[C@H](N[*:1])C(=O)[*:2])c1)C(=O)O; X9 = O=C(CC1NC(=O)NC1=O)Nc1cccc(C[C@H](N[*:1])C(=O)[*:2])c1; DOTA = O=C(O)CN1CCN(CC(=O)O)CCN(CC(=O)*)CCN(CC(=O)O)CC1; X15 = O=C(O)COCC(=O)Nc1cccc(C[C@H](N[*:1])C(=O)[*:2])c1; X6 = O=C(O)CCC(=O)Nc1cccc(C[C@H](N[*:1])C(=O)[*:2])c1; mXylylene = c1cc(C[*:1])cc(C[*:2])c1; X2 = O=C(CN1CCC(N[*:1])CC1)[*:2]; Dap = NC[C@H](N)C(=O)O

Columns and labels:
[1] = target: T1, human carbonic anhydrase IX (hCAIX-Fc) (Homo sapiens, UniProt Q16790); assay: Surface plasmon resonance assay with hCAIX-Fc; format: binding; conditions: 25° C.; for t1/2 category (activity): SPR dissociation half-life, hCAIX-Fc; for Kd: SPR, hCAIX-Fc captured, read-out: pKD category (activity) (converted)
T1 construct: purchased SinoBliological (Sino Biological) 10107-H02H

[2] = target: T2, CAIX-expressing human HT-29 colorectal cancer cells (Homo sapiens, UniProt Q16790); assay: FACS binding assay (IC50 determination, competition with tracer 3BP-2776 or 3BP-4149); conditions: FACS binding assay, HT-29 cells, competition with tracer 3BP-4149 (3 nM, Cy5-labeled), 4° C., 1 hour; read-out: pIC50 category (activity) (converted)
T2 construct: CAIX-expressing human HT-29 colorectal cancer cells; host or cells: HT-29 human colorectal cancer cells
How it was run: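 HT-29 cells in FACS buffer (PBS, 1% FCS) at 500.000 cells/ml were exposed to compounds competing with a labelled tracer, with biotinylated compounds detected by 1 μg/mL APC-streptavidin for 30 min on ice. APC/Cy5 median fluorescence was read by flow cytometry and IC50 derived by 4PL fit.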

Compound | t1/2 category (activity) [1] | Kd [1] [nM] | IC50 [2] [nM]
CC(=O)N[C@@H](CCC(=O)Nc1cccc(C[C@@H]2NC(=O)[C@H](CC(=O)O)NC(=O)[C@H]3CCCN3C(=O)[C@H](CCC(=O)O)NC(=O)[C@@H](NC(=O)[C@H](Cc3ccc(O)cc3)NC(=O)[C@@H](NC(=O)CN3CCC(NC(=O)CN4CCN(CC(=O)O)CCN(CC(=O)O)CCN(CC(=O)O)CC4)CC3)C(C)C)CSCc3cccc(c3)CSC[C@@H](C(N)=O)NC(=O)[C@H](CO)NC(=O)[C@H](Cc3c[nH]c4ccccc34)NC(=O)[C@H]([C@@H](C)O)NC(=O)[C@H](CC(C)C)NC2=O)c1)C(=O)O [3BP-4361] ({DOTA}-[X2]VYCE[dP]D[X35]LTWSC-NH2; linker 4-13 via mXylylene) | A (t1/2>15.0 minutes) | < 10 | 10 to 79.4
CC(=O)N[C@H](CCC(=O)O)C(=O)Nc1cccc(C[C@H]2NC(=O)[C@H](CC(=O)O)NC(=O)[C@H]3CCCN3C(=O)[C@H](CCC(=O)O)NC(=O)[C@@H](NC(=O)[C@H](Cc3ccc(O)cc3)NC(=O)[C@@H](NC(=O)CN3CCC(NC(=O)CN4CCN(CC(=O)O)CCN(CC(=O)O)CCN(CC(=O)O)CC4)CC3)C(C)C)CSCc3cccc(c3)CSC[C@@H](C(N)=O)NC(=O)[C@H](CO)NC(=O)[C@H](Cc3c[nH]c4ccccc34)NC(=O)[C@H]([C@@H](C)O)NC(=O)[C@H](CC(C)C)NC2=O)c1 [3BP-4362] ({DOTA}-[X2]VYCE[dP]D[X25]LTWSC-NH2; linker 4-13 via mXylylene) | B (t1/2 between 5.1 and 15.0 minutes) | < 10 | 10 to 79.4
CC(=O)N[C@@H](CC(=O)Nc1cccc(C[C@@H]2NC(=O)[C@H](CC(=O)O)NC(=O)[C@H]3CCCN3C(=O)[C@H](CCC(=O)O)NC(=O)[C@@H](NC(=O)[C@H](Cc3ccc(O)cc3)NC(=O)[C@@H](NC(=O)CN3CCC(NC(=O)CN4CCN(CC(=O)O)CCN(CC(=O)O)CCN(CC(=O)O)CC4)CC3)C(C)C)CSCc3cccc(c3)CSC[C@@H](C(N)=O)NC(=O)[C@H](CO)NC(=O)[C@H](Cc3c[nH]c4ccccc34)NC(=O)[C@H]([C@@H](C)O)NC(=O)[C@H](CC(C)C)NC2=O)c1)C(=O)O [3BP-4363] ({DOTA}-[X2]VYCE[dP]D[X33]LTWSC-NH2; linker 4-13 via mXylylene) | B (t1/2 between 5.1 and 15.0 minutes) | < 10 | 10 to 79.4
CC(=O)N[C@H](CC(=O)O)C(=O)Nc1cccc(C[C@H]2NC(=O)[C@H](CC(=O)O)NC(=O)[C@H]3CCCN3C(=O)[C@H](CCC(=O)O)NC(=O)[C@@H](NC(=O)[C@H](Cc3ccc(O)cc3)NC(=O)[C@@H](NC(=O)CN3CCC(NC(=O)CN4CCN(CC(=O)O)CCN(CC(=O)O)CCN(CC(=O)O)CC4)CC3)C(C)C)CSCc3cccc(c3)CSC[C@@H](C(N)=O)NC(=O)[C@H](CO)NC(=O)[C@H](Cc3c[nH]c4ccccc34)NC(=O)[C@H]([C@@H](C)O)NC(=O)[C@H](CC(C)C)NC2=O)c1 [3BP-4364] ({DOTA}-[X2]VYCE[dP]D[X32]LTWSC-NH2; linker 4-13 via mXylylene) | B (t1/2 between 5.1 and 15.0 minutes) | < 10 | 10 to 79.4
CC(C)C[C@@H]1NC(=O)[C@H](Cc2cccc(NC(=O)COCC(=O)O)c2)NC(=O)[C@H](CC(=O)O)NC(=O)[C@H]2CCCN2C(=O)[C@H](CCC(=O)O)NC(=O)[C@@H](NC(=O)[C@H](Cc2ccc(O)cc2)NC(=O)[C@@H](NC(=O)CN2CCC(NC(=O)CN3CCN(CC(=O)O)CCN(CC(=O)O)CCN(CC(=O)O)CC3)CC2)C(C)C)CSCc2cccc(c2)CSC[C@@H](C(N)=O)NC(=O)[C@H](CO)NC(=O)[C@H](Cc2c[nH]c3ccccc23)NC(=O)[C@H]([C@@H](C)O)NC1=O [3BP-4368] ({DOTA}-[X2]VYCE[dP]D[X15]LTWSC-NH2; linker 4-13 via mXylylene) | C (t1/2 between 2.1 and 5.0 minutes) | < 10 | 10 to 79.4
CC(C)C[C@@H]1NC(=O)[C@H](Cc2cccc(NC(=O)CC3NC(=O)NC3=O)c2)NC(=O)[C@H](CC(=O)O)NC(=O)[C@H]2CCCN2C(=O)[C@H](CCC(=O)O)NC(=O)[C@@H](NC(=O)[C@H](Cc2ccc(O)cc2)NC(=O)[C@@H](NC(=O)CN2CCC(NC(=O)CN3CCN(CC(=O)O)CCN(CC(=O)O)CCN(CC(=O)O)CC3)CC2)C(C)C)CSCc2cccc(c2)CSC[C@@H](C(N)=O)NC(=O)[C@H](CO)NC(=O)[C@H](Cc2c[nH]c3ccccc23)NC(=O)[C@H]([C@@H](C)O)NC1=O (stereo partly drawn) [3BP-4371] ({DOTA}-[X2]VYCE[dP]D[X9]LTWSC-NH2; linker 4-13 via mXylylene) | C (t1/2 between 2.1 and 5.0 minutes) | < 10 | 10 to 79.4
CC(C)C[C@@H]1NC(=O)[C@H](Cc2cccc(NC(=O)CCC(=O)O)c2)NC(=O)[C@H](CC(=O)O)NC(=O)[C@H]2CCCN2C(=O)[C@H](CCC(=O)O)NC(=O)[C@@H]2CSCc3cccc(c3)CSC[C@@H](C(N)=O)NC(=O)[C@H](CNC(=O)C[C@H](NC(=O)[C@@H](NC(=O)CN3CCC(NC(=O)CN4CCN(CC(=O)O)CCN(CC(=O)O)CCN(CC(=O)O)CC4)CC3)C(C)C)C(=O)N2)NC(=O)[C@H](Cc2c[nH]c3ccccc23)NC(=O)[C@H]([C@@H](C)O)NC1=O [3BP-4377] ({DOTA}-[X2]VDCE[dP]D[X6]LTW[Dap]C-NH2; lactam 3-12; linker 4-13 via mXylylene) | A (t1/2>15.0 minutes) | < 10 | < 10
